Read-outs that look alike come from different tables or passages of the source.
How the values were obtained:
[1] = system: Escherichia coli
Procedure, shortened: (§1)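 Broth microdilution MICs followed CLSI M7-A10 for bacteria, with peptides tested at 0.5 to 256 μM. MIC was the lowest concentration at which no cells were seen by optical microscopy. Three biological repeats, each with two technical replicates.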

[2] = system: Bacillus subtilis; details: Bacillus subtilis; for Minimum inhibitory concentration, Average: average of triplicates
Procedure, shortened: as §1

[3] = system: Candida albicans
Procedure, shortened: (§2)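 MICs determined per CLSI M7-A10 (bacteria) and M27-A3 (yeasts) protocols, peptides tested at 0.5 to 256 μM. MIC taken as the lowest concentration with no cells seen by optical microscopy; three biological repeats with 2 technical replicates each.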

[4] = system: Pseudomonas aeruginosa
Procedure, shortened: as §1

[5] = system: Erwinia carotovora
Procedure, shortened: as §1

[6] = system: Pseudomonas syringae pv. tabaci
Procedure, shortened: as §1

[7] = system: Staphylococcus aureus; details: Staphylococcus aureus; for Minimum inhibitory concentration, Average: average of triplicates
Procedure, shortened: as §1

[8] = system: Bacillus cereus
Procedure, shortened: as §1

[9] = system: Xanthomonas campestris; details: for Minimum inhibitory concentration, Average: average of triplicates
Procedure, shortened: as §1

[10] = system: Cryptococcus neoformans; details: Cryptococcus neoformans; for Minimum inhibitory concentration, Average: average of triplicates
Procedure, shortened: as §2

[11] = Escherichia coli, CLSI M7-A10, triplicate 1
[12] = Escherichia coli, average of triplicates
[13] = Candida albicans, CLSI M27-A3, 0.5 to 256 μM tested, triplicate 1, also published in ref 7
[14] = Candida albicans, average of triplicates
[15] = Pseudomonas aeruginosa, CLSI M7-A10, triplicate 1
[16] = Pseudomonas aeruginosa, average of triplicates
[17] = Pseudomonas aeruginosa, triplicate 2
[18] = Pseudomonas aeruginosa, triplicate 3
[19] = Erwinia carotovora, CLSI M7-A10, triplicate 1
[20] = Erwinia carotovora, average of triplicates
[21] = Erwinia carotovora, triplicate 2
[22] = Erwinia carotovora, triplicate 3
[23] = Pseudomonas syringae pv. tabaci, CLSI M7-A10, triplicate 1
[24] = Pseudomonas syringae pv. tabaci, average of triplicates
[25] = Pseudomonas syringae pv. tabaci, triplicate 2
[26] = Pseudomonas syringae pv. tabaci, triplicate 3
[27] = Bacillus cereus, CLSI M7-A10, triplicate 1
[28] = Bacillus cereus, average of triplicates

| Sequence | Minimum inhibitory concentration [1, 11] [µM] | Minimum inhibitory concentration, Average [1, 12] [µM] | Minimum inhibitory concentration ([1]; Escherichia coli, triplicate 2) [µM] | Minimum inhibitory concentration ([1]; Escherichia coli, triplicate 3) [µM] | Minimum inhibitory concentration ([2]; CLSI M7-A10, triplicate 1) [µM] | Minimum inhibitory concentration, Average [2] [µM] | Minimum inhibitory concentration ([2]; triplicate 2) [µM] | Minimum inhibitory concentration ([2]; triplicate 3) [µM] | Minimum inhibitory concentration ([7]; CLSI M7-A10, triplicate 1) [µM] | Minimum inhibitory concentration, Average [7] [µM] | Minimum inhibitory concentration ([7]; triplicate 2) [µM] | Minimum inhibitory concentration ([7]; triplicate 3) [µM] | Minimum inhibitory concentration ([9]; CLSI M7-A10, triplicate 1) [µM] | Minimum inhibitory concentration, Average [9] [µM] | Minimum inhibitory concentration ([9]; triplicate 2) [µM] | Minimum inhibitory concentration ([9]; triplicate 3) [µM] | Minimum inhibitory concentration ([10]; CLSI M27-A3, triplicate 1) [µM] | Minimum inhibitory concentration, Average [10] [µM] | Minimum inhibitory concentration ([10]; triplicate 2) [µM] | Minimum inhibitory concentration ([10]; triplicate 3) [µM] | also measured |
| --- | --- | --- | --- | --- | --- | --- | --- | --- | --- | --- | --- | --- | --- | --- | --- | --- | --- | --- | --- | --- | --- |
| GSLHGFMYKYLKNMVLNLF [Tc06] | 32 | 32.0 | 32 | 32 | 16 | 16.0 | 16 | 16 | 8 | 13.3 | 16 | 16 | 64 | 64.0 | 64 | 64 | 8 | 10.7 | 8 | 16 | Minimum inhibitory concentration [3, 13]: 4 µM; Minimum inhibitory concentration, Average [3, 14]: 4.0 µM; Minimum inhibitory concentration ([3]; Candida albicans, triplicate 2): 4 µM; Minimum inhibitory concentration ([3]; Candida albicans, triplicate 3): 4 µM; Minimum inhibitory concentration [4, 15]: 16 µM; Minimum inhibitory concentration, Average [4, 16]: 26.7 µM; Minimum inhibitory concentration [4, 17]: 32 µM; Minimum inhibitory concentration [4, 18]: 32 µM; Minimum inhibitory concentration [5, 19]: 128 µM; Minimum inhibitory concentration, Average [5, 20]: 128.0 µM; Minimum inhibitory concentration [5, 21]: 128 µM; Minimum inhibitory concentration [5, 22]: 128 µM; Minimum inhibitory concentration [6, 23]: 16 µM; Minimum inhibitory concentration, Average [6, 24]: 16.0 µM; Minimum inhibitory concentration [6, 25]: 16 µM; Minimum inhibitory concentration [6, 26]: 16 µM; Minimum inhibitory concentration [8, 27]: 64 µM; Minimum inhibitory concentration, Average [8, 28]: 64.0 µM; Minimum inhibitory concentration ([8]; Bacillus cereus, triplicate 2): 64 µM; Minimum inhibitory concentration ([8]; Bacillus cereus, triplicate 3): 64 µM |
| FFGHIWHGARTLFRDVFA [Cs02] | 8 | 8.0 | 8 | 8 | 2 | 3.3 | 4 | 4 | 8 | 8.0 | 8 | 8 | 32 | 32.0 | 32 | 32 | 32 | 32.0 | 32 | 32 | Minimum inhibitory concentration [3, 13]: 32 µM; Minimum inhibitory concentration, Average [3, 14]: 32.0 µM; Minimum inhibitory concentration ([3]; Candida albicans, triplicate 2): 32 µM; Minimum inhibitory concentration ([3]; Candida albicans, triplicate 3): 32 µM; Minimum inhibitory concentration [4, 15]: 512 µM; Minimum inhibitory concentration, Average [4, 16]: 512.0 µM; Minimum inhibitory concentration [4, 17]: 512 µM; Minimum inhibitory concentration [4, 18]: 512 µM; Minimum inhibitory concentration [5, 19]: 32 µM; Minimum inhibitory concentration, Average [5, 20]: 32.0 µM; Minimum inhibitory concentration [5, 21]: 32 µM; Minimum inhibitory concentration [5, 22]: 32 µM; Minimum inhibitory concentration [6, 23]: 4 µM; Minimum inhibitory concentration, Average [6, 24]: 4.0 µM; Minimum inhibitory concentration [6, 25]: 4 µM; Minimum inhibitory concentration [6, 26]: 4 µM; Minimum inhibitory concentration [8, 27]: 64 µM; Minimum inhibitory concentration, Average [8, 28]: 64.0 µM; Minimum inhibitory concentration ([8]; Bacillus cereus, triplicate 2): 64 µM; Minimum inhibitory concentration ([8]; Bacillus cereus, triplicate 3): 64 µM |
| GSLHGFMYRYLKNMVLNLF [Cs01] | 32 | 32.0 | 32 | 32 | 8 | 8.0 | 8 | 8 | 4 | 4.0 | 4 | 4 | 64 | 64.0 | 64 | 64 | 8 | 8.0 | 8 | 8 | Minimum inhibitory concentration [3, 13]: 2 µM; Minimum inhibitory concentration, Average [3, 14]: 2.7 µM; Minimum inhibitory concentration ([3]; Candida albicans, triplicate 2): 2 µM; Minimum inhibitory concentration ([3]; Candida albicans, triplicate 3): 4 µM; Minimum inhibitory concentration [4, 15]: 32 µM; Minimum inhibitory concentration, Average [4, 16]: 32.0 µM; Minimum inhibitory concentration [4, 17]: 32 µM; Minimum inhibitory concentration [4, 18]: 32 µM; Minimum inhibitory concentration [5, 19]: 128 µM; Minimum inhibitory concentration, Average [5, 20]: 128.0 µM; Minimum inhibitory concentration [5, 21]: 128 µM; Minimum inhibitory concentration [5, 22]: 128 µM; Minimum inhibitory concentration [6, 23]: 16 µM; Minimum inhibitory concentration, Average [6, 24]: 16.0 µM; Minimum inhibitory concentration [6, 25]: 16 µM; Minimum inhibitory concentration [6, 26]: 16 µM; Minimum inhibitory concentration [8, 27]: 64 µM; Minimum inhibitory concentration, Average [8, 28]: 64.0 µM; Minimum inhibitory concentration ([8]; Bacillus cereus, triplicate 2): 64 µM; Minimum inhibitory concentration ([8]; Bacillus cereus, triplicate 3): 64 µM |
| GLYNFIKVLGRTVFGLYKQF [At04] |  |  |  |  | 256 | 256.0 | 256 | 256 | 16 | 16.0 | 16 | 16 | 512 | 512.0 | 512 | 512 | 64 | 64.0 | 64 | 64 | Minimum inhibitory concentration [1]: 512 µM; Minimum inhibitory concentration, Average [1]: 512.0 µM; Minimum inhibitory concentration [3]: 512 µM; Minimum inhibitory concentration, Average [3]: 512.0 µM; Minimum inhibitory concentration [4]: 512 µM; Minimum inhibitory concentration, Average [4]: 512.0 µM; Minimum inhibitory concentration [5]: 512 µM; Minimum inhibitory concentration, Average [5]: 512.0 µM; Minimum inhibitory concentration [6]: 512 µM; Minimum inhibitory concentration, Average [6]: 512.0 µM; Minimum inhibitory concentration [8]: 512 µM; Minimum inhibitory concentration, Average [8]: 512.0 µM |
| IKLRNVLKYLFRIDVIKEDIL [Tc03] | 64 | 64.0 | 64 | 64 | 16 | 16.0 | 16 | 16 | 512 | 512.0 | 512 | 512 | 64 | 64.0 | 64 | 64 | 512 | 512.0 | 512 | 512 | Minimum inhibitory concentration, Average [3, 14]: 512.0 µM; Minimum inhibitory concentration ([3]; Candida albicans, triplicate 2): 512 µM; Minimum inhibitory concentration ([3]; Candida albicans, triplicate 3): 512 µM; Minimum inhibitory concentration [4, 15]: 512 µM; Minimum inhibitory concentration, Average [4, 16]: 512.0 µM; Minimum inhibitory concentration [4, 17]: 512 µM; Minimum inhibitory concentration [4, 18]: 512 µM; Minimum inhibitory concentration [5, 19]: 32 µM; Minimum inhibitory concentration, Average [5, 20]: 32.0 µM; Minimum inhibitory concentration [5, 21]: 32 µM; Minimum inhibitory concentration [5, 22]: 32 µM; Minimum inhibitory concentration [6, 23]: 32 µM; Minimum inhibitory concentration, Average [6, 24]: 32.0 µM; Minimum inhibitory concentration [6, 25]: 32 µM; Minimum inhibitory concentration [6, 26]: 32 µM; Minimum inhibitory concentration [8, 27]: 128 µM; Minimum inhibitory concentration, Average [8, 28]: 128.0 µM; Minimum inhibitory concentration ([8]; Bacillus cereus, triplicate 2): 128 µM; Minimum inhibitory concentration ([8]; Bacillus cereus, triplicate 3): 128 µM |
